In ChEMBL document CHEMBL1153753, “Structure-activity relationships and mechanism of action of antitumor bis 8-hydroxyquinoline substituted benzylamines” (Eur J Med Chem, 2010):
The source made the active and inactive calls. The calls are words filed in the database; no cut-off is given here.

Tested on: not listed separately
Experiment: Antiproliferative activity against human U87 cells expressing GFP after 3 days by flash-cytometry
Type: functional, U-87MG ATCC
Conditions: U-87 MG, 72 h, read-out: ED50 (the source's name)

SMILES | EC50 [nM]
Oc1ccc(CN(Cc2ccccc2)Cc2ccc(O)c3ncccc23)c2cccnc12 | < 500
Oc1ccc(CN(Cc2cc(C(F)(F)F)cc(C(F)(F)F)c2)Cc2ccc(O)c3ncccc23)c2cccnc12 | < 200
Oc1ccc(CN(Cc2cccc(I)c2)Cc2ccc(O)c3ncccc23)c2cccnc12 | 2000
Cc1ccc(CNCc2ccc(O)c3ncccc23)cc1 | > 10000
CC(C)(C)OC(=O)N(Cc1ccc(C(F)(F)F)cc1)Cc1ccc(O)c2ncccc12 | 2000
Cn1cccc1CN(Cc1ccc(O)c2ncccc12)Cc1ccc(O)c2ncccc12 | 2000
Oc1ccc(CNCc2ccc(C(F)(F)F)cc2)c2cccnc12 | > 10000
Oc1ccc(CN(Cc2ccc(O)c3ncccc23)Cc2ccc(O)c3ncccc23)c2cccnc12 | > 10000
Oc1ccc(CN(Cc2ccccc2C(F)(F)F)Cc2ccc(O)c3ncccc23)c2cccnc12 | < 200
Oc1ccc(CN(Cc2ccc(C(F)(F)F)cc2)Cc2ccc(O)c3ncccc23)c2cccnc12 | < 200
CC(C)(C)OC(=O)N(Cc1cccc(C(F)(F)F)c1)Cc1ccc(O)c2ncccc12 | > 10000
Oc1ccc(CN(CCN2CCCC2)Cc2ccc(O)c3ncccc23)c2cccnc12 | 200

Tested on: Nucleic Acid
Experiment: Binding affinity to calf thymus DNA assessed as DNA alkylation at 2 to 100 uM after 24 hrs
Type: nucleic-acid assay
Conditions: Bos taurus

Activity | SMILES
inactive | Oc1ccc(CN(Cc2ccc(C(F)(F)F)cc2)Cc2ccc(O)c3ncccc23)c2cccnc12

Tested on: not listed separately
Experiment: Cytotoxicity against human Hs683 cells by MTT assay
Type: functional, cell-based
Conditions: Hs 683

SMILES | IC50 [nM]
Oc1ccc(CN(Cc2ccccc2)Cc2ccc(O)c3ncccc23)c2cccnc12 | 76
Oc1ccc(CN(Cc2cc(C(F)(F)F)cc(C(F)(F)F)c2)Cc2ccc(O)c3ncccc23)c2cccnc12 | 181
Oc1ccc(CN(Cc2cccc(I)c2)Cc2ccc(O)c3ncccc23)c2cccnc12 | 479
Oc1ccc(CN(Cc2ccccc2C(F)(F)F)Cc2ccc(O)c3ncccc23)c2cccnc12 | 64
Oc1ccc(CN(Cc2ccc(C(F)(F)F)cc2)Cc2ccc(O)c3ncccc23)c2cccnc12 | 10

Tested on: T98G
Experiment: Cytotoxicity against human T98G cells by MTT assay
Type: functional, cell-based
Conditions: not given

SMILES | IC50 [nM]
Oc1ccc(CN(Cc2ccccc2)Cc2ccc(O)c3ncccc23)c2cccnc12 | 249
Oc1ccc(CN(Cc2cc(C(F)(F)F)cc(C(F)(F)F)c2)Cc2ccc(O)c3ncccc23)c2cccnc12 | 72
Oc1ccc(CN(Cc2cccc(I)c2)Cc2ccc(O)c3ncccc23)c2cccnc12 | 446
Oc1ccc(CN(Cc2ccccc2C(F)(F)F)Cc2ccc(O)c3ncccc23)c2cccnc12 | 210
Oc1ccc(CN(Cc2ccc(C(F)(F)F)cc2)Cc2ccc(O)c3ncccc23)c2cccnc12 | 99

Tested on: not listed separately
Experiment: Cytotoxicity against human U373 cells by MTT assay
Type: functional, cell-based, U-373MG ATCC
Conditions: U373 MG

SMILES | IC50 [nM]
Oc1ccc(CN(Cc2ccccc2)Cc2ccc(O)c3ncccc23)c2cccnc12 | 357
Oc1ccc(CN(Cc2cc(C(F)(F)F)cc(C(F)(F)F)c2)Cc2ccc(O)c3ncccc23)c2cccnc12 | 96
Oc1ccc(CN(Cc2cccc(I)c2)Cc2ccc(O)c3ncccc23)c2cccnc12 | 5600
Oc1ccc(CN(Cc2ccccc2C(F)(F)F)Cc2ccc(O)c3ncccc23)c2cccnc12 | 78
Oc1ccc(CN(Cc2ccc(C(F)(F)F)cc2)Cc2ccc(O)c3ncccc23)c2cccnc12 | 44

Tested on: BXPC-3
Experiment: Cytotoxicity against human BxPC3 cells by MTT assay
Type: functional, cell-based
Conditions: not given

SMILES | IC50 [nM]
Oc1ccc(CN(Cc2ccccc2)Cc2ccc(O)c3ncccc23)c2cccnc12 | 7440
Oc1ccc(CN(Cc2cc(C(F)(F)F)cc(C(F)(F)F)c2)Cc2ccc(O)c3ncccc23)c2cccnc12 | 79
Oc1ccc(CN(Cc2cccc(I)c2)Cc2ccc(O)c3ncccc23)c2cccnc12 | 2590
Oc1ccc(CN(Cc2ccccc2C(F)(F)F)Cc2ccc(O)c3ncccc23)c2cccnc12 | 274
Oc1ccc(CN(Cc2ccc(C(F)(F)F)cc2)Cc2ccc(O)c3ncccc23)c2cccnc12 | 4300

Tested on: LoVo
Experiment: Cytotoxicity against human LoVo cells by MTT assay
Type: functional, cell-based
Conditions: not given

SMILES | IC50 [nM]
Oc1ccc(CN(Cc2ccccc2)Cc2ccc(O)c3ncccc23)c2cccnc12 | 91
Oc1ccc(CN(Cc2cc(C(F)(F)F)cc(C(F)(F)F)c2)Cc2ccc(O)c3ncccc23)c2cccnc12 | 10
Oc1ccc(CN(Cc2cccc(I)c2)Cc2ccc(O)c3ncccc23)c2cccnc12 | 393
Oc1ccc(CN(Cc2ccccc2C(F)(F)F)Cc2ccc(O)c3ncccc23)c2cccnc12 | 93
Oc1ccc(CN(Cc2ccc(C(F)(F)F)cc2)Cc2ccc(O)c3ncccc23)c2cccnc12 | 10

Tested on: not listed separately
Experiment: Cytotoxicity against human KB3-1 cells assessed as reduction of glutathione level after 72 hrs by MTT assay
Type: functional
Conditions: KB 3-1, 72 h

SMILES | CC50 [nM]
Oc1ccc(CN(Cc2ccc(C(F)(F)F)cc2)Cc2ccc(O)c3ncccc23)c2cccnc12 | 33

Tested on: A549
Experiment: Cytotoxicity against human A549 cells by MTT assay
Type: functional, cell-based
Conditions: not given

SMILES | IC50 [nM]
Oc1ccc(CN(Cc2ccccc2)Cc2ccc(O)c3ncccc23)c2cccnc12 | 544
Oc1ccc(CN(Cc2cc(C(F)(F)F)cc(C(F)(F)F)c2)Cc2ccc(O)c3ncccc23)c2cccnc12 | 9
Oc1ccc(CN(Cc2cccc(I)c2)Cc2ccc(O)c3ncccc23)c2cccnc12 | 350
Oc1ccc(CN(Cc2ccccc2C(F)(F)F)Cc2ccc(O)c3ncccc23)c2cccnc12 | 46
Oc1ccc(CN(Cc2ccc(C(F)(F)F)cc2)Cc2ccc(O)c3ncccc23)c2cccnc12 | 8

Tested on: PC-3
Experiment: Cytotoxicity against human PC3 cells by MTT assay
Type: functional, cell-based
Conditions: not given

SMILES | IC50 [nM]
Oc1ccc(CN(Cc2ccccc2)Cc2ccc(O)c3ncccc23)c2cccnc12 | 258
Oc1ccc(CN(Cc2cc(C(F)(F)F)cc(C(F)(F)F)c2)Cc2ccc(O)c3ncccc23)c2cccnc12 | 71
Oc1ccc(CN(Cc2cccc(I)c2)Cc2ccc(O)c3ncccc23)c2cccnc12 | 394
Oc1ccc(CN(Cc2ccccc2C(F)(F)F)Cc2ccc(O)c3ncccc23)c2cccnc12 | 179
Oc1ccc(CN(Cc2ccc(C(F)(F)F)cc2)Cc2ccc(O)c3ncccc23)c2cccnc12 | 66

Tested on: Nucleic Acid
Experiment: Binding affinity to calf thymus DNA at 2 to 100 uM by EMSA
Type: nucleic-acid assay
Conditions: Bos taurus

Activity | SMILES
inactive | Oc1ccc(CN(Cc2ccc(C(F)(F)F)cc2)Cc2ccc(O)c3ncccc23)c2cccnc12

Tested on: not listed separately
Experiment: Cytotoxicity against human KB3-1 cells assessed as reduction of glutathione level after 72 hrs by MTT assay pretreated with buthionin sulfoximine
Type: functional
Conditions: KB 3-1

SMILES | CC50 [nM]
Oc1ccc(CN(Cc2ccc(C(F)(F)F)cc2)Cc2ccc(O)c3ncccc23)c2cccnc12 | 70

Tested on: not listed separately
Experiment: Cytotoxicity against human KB3 cells after 72 hrs by MTS assay
Type: functional
Conditions: KB3, 72 h

SMILES | CC50 [nM]
Oc1ccc(CN(Cc2ccccc2)Cc2ccc(O)c3ncccc23)c2cccnc12 | 20
Oc1ccc(CN(Cc2cc(C(F)(F)F)cc(C(F)(F)F)c2)Cc2ccc(O)c3ncccc23)c2cccnc12 | 1000
Oc1ccc(CN(Cc2cccc(I)c2)Cc2ccc(O)c3ncccc23)c2cccnc12 | 1000
CC(C)(C)OC(=O)N(Cc1ccc(C(F)(F)F)cc1)Cc1ccc(O)c2ncccc12 | 10000
Oc1ccc(CNCc2ccc(C(F)(F)F)cc2)c2cccnc12 | 10000
Oc1ccc(CN(Cc2ccc(O)c3ncccc23)Cc2ccc(O)c3ncccc23)c2cccnc12 | > 10000
Oc1ccc(CN(Cc2ccccc2C(F)(F)F)Cc2ccc(O)c3ncccc23)c2cccnc12 | 100
Oc1ccc(CN(Cc2ccc(C(F)(F)F)cc2)Cc2ccc(O)c3ncccc23)c2cccnc12 | 1
CC(C)(C)OC(=O)N(Cc1cccc(C(F)(F)F)c1)Cc1ccc(O)c2ncccc12 | 1000
Oc1ccc(CN(CCN2CCCC2)Cc2ccc(O)c3ncccc23)c2cccnc12 | 1000

Tested on: Nucleic Acid
Experiment: Binding affinity to calf thymus DNA assessed as DNA cleavage at 2 to 100 uM by electrophoresis
Type: nucleic-acid assay
Conditions: Bos taurus

Activity | SMILES
inactive | Oc1ccc(CN(Cc2ccc(C(F)(F)F)cc2)Cc2ccc(O)c3ncccc23)c2cccnc12

Tested on: Nucleic Acid
Experiment: Binding affinity to calf thymus DNA at 2 to 100 uM by standard spectrometry
Type: nucleic-acid assay
Conditions: Bos taurus

Activity | SMILES
inactive | Oc1ccc(CN(Cc2ccc(C(F)(F)F)cc2)Cc2ccc(O)c3ncccc23)c2cccnc12

Tested on: MCF7
Experiment: Cytotoxicity against human MCF7 cells by MTT assay
Type: functional, cell-based
Conditions: not given

SMILES | IC50 [nM]
Oc1ccc(CN(Cc2ccccc2)Cc2ccc(O)c3ncccc23)c2cccnc12 | 97
Oc1ccc(CN(Cc2cc(C(F)(F)F)cc(C(F)(F)F)c2)Cc2ccc(O)c3ncccc23)c2cccnc12 | 38
Oc1ccc(CN(Cc2cccc(I)c2)Cc2ccc(O)c3ncccc23)c2cccnc12 | 374
Oc1ccc(CN(Cc2ccccc2C(F)(F)F)Cc2ccc(O)c3ncccc23)c2cccnc12 | 88
Oc1ccc(CN(Cc2ccc(C(F)(F)F)cc2)Cc2ccc(O)c3ncccc23)c2cccnc12 | 34
